SMILES strings stand for the structures.

One series concerns asthmatic patients. Description: sGaw after inhaled dry powder in asthmatic patients (Examples 5, 6). As to the method: To test this theory, asthmatic patients are enrolled in a dose escalating single blind study. On arrival to the clinic, subjects are allowed to rest for 20 minutes before baseline measurements of FEV1 (six recordings) and sGaw (five recordings) are made. Subjects receive a dry powder dispenser loaded with a dose of 2 mg theophylline or a dry powder carrier. […] After each inhalation, measurements of sGaw are made at 1, 3, 5, 10, 15, 20, 25, and 30 minutes.
On completion of the last recording, subjects inhale a 200 μg dose of salbutamol from a metered inhaler and a further measurement of sGaw is made after 15 minutes. Subjects are also monitored for coughing and are questioned about the taste of the drug.
Asthmatic patients are enrolled in a dose escalating single blind study. On arrival to the clinic, subjects are allowed to rest for 20 minutes before baseline measurements of FEV1 (six recordings) and sGaw (five recordings) are made. Subjects receive a dry powder dispenser loaded with a dose of 1 mg IBMX formulated as a dry powder or a dry powder carrier. […] After each inhalation, measurements of sGaw are made at 1, 3, 5, 10, 15, 20, 25, and 30 minutes.
On completion of the last recording, subjects inhale a 200 μg dose of salbutamol from a metered inhaler and a further measurement of sGaw made after 15 minutes. Subjects are also be monitored for coughing and are questioned about the taste of the drug.

For a further series, the system named is cAMP. Description: Parotid saliva cAMP after oral theophylline (Example 2). It counts as in vivo, human. The following applies: for cAMP: parotid saliva. As to the method: Parotid saliva was collected from each patient by application of a Lashley cup over Stensen's duct with lingual stimulation by placement of concentrated lemon juice. Saliva was collected in plastic tubes and stored at −20° C. until assayed. cAMP and cGMP were measured in saliva by a sensitive 96 plate spectrophotometric assay (R&D Systems, Minneapolis, Minn.).
All patients were placed in a fixed design open label clinical trial with treatment with oral theophylline. Treatment consisted of fixed treatment periods of two-eight months with sequential doses of the drug at 200 mg, 400 mg and 600 mg. At termination of each of these intervals, patients returned to study site for reevaluation. At the end of each interval subjective responses to treatment were measured with a modification of the 0-100 scale previously used. Subjective responses to treatment were graded on a sliding scale from −100−0-+100 with patients recording improvement (+0-+100), no improvement (0) or worsening (0-−100) of their overall smell function. If overall smell function improved ≥5% they were considered to improve clinically (1). If smell function improved <5% they were considered not to improve (1). At the end of each interval subjective measurements of smell function, measurements of DT, RT, ME and H and measurements of parotid saliva for levels of cAMP and cGMP were obtained. In addition, blood plasma was obtained by venipuncture, placed in ice into zinc free tubes which contained 100 mg zinc free heparin, centrifuged at 3000 rpm for 10-20 min, the plasma transferred to plastic PCR tubes and stored at −20° C. until assayed. Theophylline was assayed by a fluorescence polarization assay (Abbott, Chicago, Ill.), as previously described.
Data for the cyclic nucleotides from these 31 patients was not analyzed until the entire study of the 312 patients in Example 1 was assembled and analyzed in its entirety. After completion of these analyses, all data for parotid saliva cAMP and cGMP from all patients in whom salivary cAMP and cGMP were obtained were assembled. Levels of salivary cyclic nucleotides varied widely. Initially, without external criteria, there was no way to understand these disparate data. […] In a similar manner, measurements of each patient's plasma theophylline level at each dosage of theophylline (at 200 mg, 400 mg, 600 mg of theophylline) were categorized. The two patient groups were also analyzed post hoc with respect to type of smell loss and etiology of smell loss.

[1] abbreviates: inhaled dry powder 2 mg theophylline.

Regarding `Cn1c(=O)c2[nH]cnc2n(C)c1=O` [theophylline], in the series with asthmatic patients (after 30 minutes, inhaled dry powder 2 mg theophylline), the “sGaw above the baseline measurement” value was 20%. Moreover, the taste and coughing entry in the series on asthmatic patients (dry powder formulation of theophylline vs nebulized liquid) is “without the unpleasant taste or the induction of coughing”. Further, in the series on asthmatic patients (setting [1]), the “increase in sGaw relative to 200 μg inhaled salbutamol” value is listed as “comparable”. In the series on asthmatic patients (setting [1]), the “time until sGaw baseline is reached” value is 1 h. Further, in the series with cAMP (oral theophylline 200 mg, improved patients, not significant), the “increase of saliva cAMP levels above baseline” value turned out to be 10%. In addition, the “increase of saliva cAMP levels over baseline” value with cAMP (oral theophylline 400 mg, improved group, not statistically significant) was found to be 40%. In addition, the “increase of saliva cAMP levels above initial values” in the series with cAMP (oral theophylline 600 mg, improved patients, significant) was found to be 67%. Besides, the cAMP with cAMP (oral theophylline 200 mg, patients with improved smell function (16)) was found to be 0.96 ± 0.13 pmol/mL; with cAMP (oral theophylline 200 mg, patients with unimproved smell function (9)) it was 0.78 ± 0.26 pmol/mL; in the series on cAMP (oral theophylline 400 mg, patients with improved smell function (12)), 1.22 ± 0.33 pmol/mL; in the series on cAMP (oral theophylline 400 mg, patients with unimproved smell function (5)) it was 0.95 ± 0.26 pmol/mL; in the series on cAMP (oral theophylline 600 mg, patients with unimproved smell function (9)), 0.56 ± 0.21 pmol/mL.
